{"source": "patent US10899754B2", "about": "“Modulators of indoleamine 2,3-dioxygenase” (GLAXOSMITHKLINE INTELLECTUAL PROPERTY DEVELOPMENT LIMITED, priority 2016, dated 2021)", "key": {"[1]": {"test_system": "human peripheral blood mononuclear cells (PBMC)", "test": "PBMC cytotoxicity assay (CellTiter-Glo)", "format": "cell-based", "details": "2 days, pCC50", "in_short": "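% cytotoxicity was taken from CellTiter-Glo luminescence, using wells without cells and stimulated DMSO wells as references, and fitted by four-parameter curve to give XC50. Cells were human PBMC at 50,000 per well, activated with 100 ng/ml IFN-γ plus 50 ng/ml LPS. Incubation with 11-point, 3-fold dilution series ran for 2 days at 37 °C.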"}, "[2]": {"molecular_target": "indoleamine 2, 3-dioxygenase (IDO1) (Homo sapiens, UniProt P14902)", "sequence (P14902 whole entry)": "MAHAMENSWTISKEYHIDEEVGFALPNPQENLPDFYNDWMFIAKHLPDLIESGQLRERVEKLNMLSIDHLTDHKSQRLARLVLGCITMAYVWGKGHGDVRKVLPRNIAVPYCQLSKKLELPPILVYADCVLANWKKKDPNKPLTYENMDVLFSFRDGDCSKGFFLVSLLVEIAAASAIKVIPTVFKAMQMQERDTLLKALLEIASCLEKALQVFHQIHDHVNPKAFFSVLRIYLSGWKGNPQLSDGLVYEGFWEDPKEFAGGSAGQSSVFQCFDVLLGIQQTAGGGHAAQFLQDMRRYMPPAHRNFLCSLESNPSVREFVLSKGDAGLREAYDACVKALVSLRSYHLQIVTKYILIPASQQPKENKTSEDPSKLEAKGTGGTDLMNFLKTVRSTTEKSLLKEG", "test": "IDO1 PBMC RapidFire MS assay (kynurenine detection by mass spectrometry)", "format": "cell-based", "set-up": "to induce the expression of indoleamine 2, 3-dioxygenase (IDO1); host or cells: human PBMC stimulated with IFN-gamma and LPS", "details": "human PBMC stimulated with IFN-γ and LPS, 2 days, pIC50, read-out: PBMC PXC50 (converted)", "in_short": "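Kynurenine output, read by RapidFire mass spectrometry as ratio to an internal standard, was measured after 2-day compound exposure (11-point, 3-fold dilutions) of human PBMCs induced with 100 ng/ml IFN-γ and 50 ng/ml LPS. Cell viability tracked alongside via ATP luminescence; XC50 from curve fitting.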"}, "[3]": {"test": "Toxicokinetics in Beagle dogs, 7 day repeat oral administration", "format": "in vivo", "details": "20 mg/kg PO BID; for Therapeutic Index AUC (0-12 hr): versus predicted human efficacious AUC 0.376 μg * hr/mL; for Therapeutic Index Cmax: versus predicted human efficacious Cmax 0.078 μg/mL; for Cmax / AUC(0-t): Beagle, dog, po, 20 mg/kg; for Cmax / AUC(0-t) / Tmax: plasma; for AUC(0-t): Subject 1, read-out: AUC (0-12 hr)", "description": "(§1) To understand its toxicokinetics and potential effect on hepatic functions, EXAMPLE 23 was orally dosed to Beagle dogs for 7 consecutive days."}, "[4]": {"test": "Tolerability, body weight and hepatic functions in Beagle dogs, 7 day repeat oral administration", "format": "in vivo", "details": "Beagle dog, 20 mg/kg PO BID for 7 days", "protocol": "FIG. 1 is daily body weights of Beagle dogs during the study of example 23, 20 mg/kg PO BID dose.\nFIG. 2 is daily hepatic enzyme levels of Beagle dogs during the study: ALT (alanine aminotransferase), AST (aspartate aminotransferase), ALP (alkaline phosphatase) and T-Bil (total bilirubin) for example 23, 20 mg/kg PO BID dose.\nas §1"}}, "note": "Where two headings read alike, the source gives them in different places."}
{"smiles": "CC(C)CN(c1ccc([C@H](C)CC(=O)O)cc1Nc1nc(C(F)(F)F)ns1)C1CCOCC1", "note": "[Example 20, (R)-3-(4-(Isobutyl(tetrahydro-2H-pyran-4-yl)amino)-3-((3-(trifluoromethyl)-1,2,4-thiadiazol-5-yl)amino)phenyl)butanoic Acid]", "values": [{"measurement": "PBMC TOX PXC50", "setting": "[1]", "result": "<5"}, {"measurement": "IC50", "setting": "[2]", "result": 2.51, "unit": "nM"}]}
{"smiles": "CC(C)CN(c1ccc([C@H](C)CC(=O)O)cc1Nc1nnc(C2CC2)s1)C1CCOCC1", "note": "[Example 23, (R)-3-(3-((5-cyclopropyl-1,3,4-thiadiazol-2-yl)amino)-4-(isobutyl (tetrahydro-2H-pyran-4-yl)amino)phenyl)butanoic Acid]", "values": [{"measurement": "Therapeutic Index AUC (0-12 hr)", "setting": "[3]; Beagle dog, Day1, Female", "result": 4}, {"measurement": "Therapeutic Index Cmax", "setting": "[3]; Beagle dog, Day1, Female", "result": 13}, {"measurement": "Therapeutic Index AUC (0-12 hr)", "setting": "[3]; Beagle dog, Day1, Male", "result": 14}, {"measurement": "Therapeutic Index Cmax", "setting": "[3]; Beagle dog, Day1, Male", "result": 31}, {"measurement": "Therapeutic Index AUC (0-12 hr)", "setting": "[3]; Beagle dog, Day7, Female", "result": 10}, {"measurement": "Therapeutic Index Cmax", "setting": "[3]; Beagle dog, Day7, Female", "result": 50}, {"measurement": "Therapeutic Index AUC (0-12 hr)", "setting": "[3]; Beagle dog, Day7, Male", "result": 40}, {"measurement": "Therapeutic Index Cmax", "setting": "[3]; Beagle dog, Day7, Male", "result": 81}, {"measurement": "Therapeutic coverage in AUC0-12 for the predicted human efficacious dose", "setting": "[3]; Beagle dog, Day 7, average", "result": "~25", "unit": "fold"}, {"measurement": "Therapeutic coverage in Cmax for the predicted human efficacious dose", "setting": "[3]; Beagle dog, Day 7, average", "result": "~66", "unit": "fold"}, {"measurement": "Time quantifiable in plasma post the start of the oral dose", "setting": "[3]; Beagle dog, Days 1 and 7", "result": "up to 24 hours"}, {"measurement": "Increase in systemic exposures (Cmax and AUC0-12 values) on Day 7 in comparison to Day 1", "setting": "[3]; Beagle dog, both dogs", "result": "~3", "unit": "fold"}, {"measurement": "Cmax", "setting": "[3]; female, Day1, Female, Subject 1", "result": 1000, "unit": "ng/mL"}, {"measurement": "AUC(0-t)", "setting": "[3]; female, Day1, Female", "result": 1500, "unit": "ng·h/mL"}, {"measurement": "Cmax", "setting": "[3]; female, Day7, Female, Subject 1", "result": 3900, "unit": "ng/mL"}, {"measurement": "AUC(0-t)", "setting": "[3]; female, Day7, Female", "result": 3800, "unit": "ng·h/mL"}, {"measurement": "Cmax", "setting": "[3]; male, Day1, Male, Subject 1", "result": 2400, "unit": "ng/mL"}, {"measurement": "AUC(0-t)", "setting": "[3]; male, Day1, Male", "result": 5100, "unit": "ng·h/mL"}, {"measurement": "Cmax", "setting": "[3]; male, Day7, Male, Subject 1", "result": 6300, "unit": "ng/mL"}, {"measurement": "AUC(0-t)", "setting": "[3]; male, Day7, Male", "result": 14900, "unit": "ng·h/mL"}, {"measurement": "Tmax", "setting": "[3]; Beagle dog, Day1, Male, Subject 1", "result": 30, "unit": "min"}, {"measurement": "Tmax", "setting": "[3]; Beagle dog, Day7, Female, Subject 1", "result": 30, "unit": "min"}, {"measurement": "Tmax", "setting": "[3]; Beagle dog, post dose on Days 1 and 7", "result": 30, "unit": "min"}, {"measurement": "Clinical observations", "setting": "[4]", "result": "no clinical observations were made"}, {"measurement": "Tolerability throughout the study", "setting": "[4]", "result": "well tolerated"}, {"measurement": "Hepatic functions measured by serum ALT, AST, ALP and T-Bil levels", "setting": "[4]; FIG. 2", "result": "in the normal variable ranges"}, {"measurement": "Body weights", "setting": "[4]; male and female, FIG. 1", "result": "constant"}, {"measurement": "PBMC TOX PXC50", "setting": "[1]", "result": "<5"}, {"measurement": "IC50", "setting": "[2]", "result": 3.16, "unit": "nM"}]}
